Experimental data taken from patent US11033539B2, “Compounds of formulas (VII), (VIII), (IX), (XI), (XII), (XIII), and (XIV) as muscarinic receptor 4(M4) antagonists for treating neurological diseases” (Neurocrine Biosciences, Inc., priority 2015, dated 2021).

Key:
human M2 receptor = human M2 receptor (Homo sapiens (Human), UniProt P08172); assay: Radioligand (tritiated N-methylscopolamine) binding assay, M2; conditions: CHO cell membranes expressing human M2; 1.5 nM tritiated N-methylscopolamine; 90 min, 37° C.; read-out: Ki against M2 receptor (Table 21, M2)
Chain of human M2 receptor (P08172 whole entry): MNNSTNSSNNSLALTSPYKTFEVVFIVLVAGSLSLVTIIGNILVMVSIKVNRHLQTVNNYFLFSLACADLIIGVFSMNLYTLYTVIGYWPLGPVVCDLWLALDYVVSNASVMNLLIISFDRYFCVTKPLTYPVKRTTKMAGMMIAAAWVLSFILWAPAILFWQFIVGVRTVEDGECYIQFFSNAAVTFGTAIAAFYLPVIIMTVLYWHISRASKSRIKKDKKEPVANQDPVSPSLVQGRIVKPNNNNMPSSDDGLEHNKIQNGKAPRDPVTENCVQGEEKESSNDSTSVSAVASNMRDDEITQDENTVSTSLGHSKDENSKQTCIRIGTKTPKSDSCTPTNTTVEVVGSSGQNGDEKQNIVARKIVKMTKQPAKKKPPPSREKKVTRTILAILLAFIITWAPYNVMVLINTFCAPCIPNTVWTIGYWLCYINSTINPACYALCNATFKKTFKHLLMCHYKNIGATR
In short: (§1)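 Test compound (12 concentrations, 10 μM to […]), 1.5 nM radioligand and CHO receptor membranes were co-incubated at 37 °C for 90 minutes in 50 mM HEPES buffer with 100 mM NaCl, 5 mM MgCl2 and 1 mM EDTA, pH 7.4. Membranes were then harvested onto polyethylenimine-pretreated filters and radioactivity was counted to determine Ki.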

human M3 receptor = human M3 receptor (Homo sapiens (Human), UniProt P20309); assay: Radioligand (tritiated N-methylscopolamine) binding assay, M3; conditions: CHO cell membranes expressing human M3; 1.5 nM tritiated N-methylscopolamine; 90 min, 37° C.; read-out: Ki against M3 receptor (Table 21, M3)
Chain of human M3 receptor (P20309 whole entry): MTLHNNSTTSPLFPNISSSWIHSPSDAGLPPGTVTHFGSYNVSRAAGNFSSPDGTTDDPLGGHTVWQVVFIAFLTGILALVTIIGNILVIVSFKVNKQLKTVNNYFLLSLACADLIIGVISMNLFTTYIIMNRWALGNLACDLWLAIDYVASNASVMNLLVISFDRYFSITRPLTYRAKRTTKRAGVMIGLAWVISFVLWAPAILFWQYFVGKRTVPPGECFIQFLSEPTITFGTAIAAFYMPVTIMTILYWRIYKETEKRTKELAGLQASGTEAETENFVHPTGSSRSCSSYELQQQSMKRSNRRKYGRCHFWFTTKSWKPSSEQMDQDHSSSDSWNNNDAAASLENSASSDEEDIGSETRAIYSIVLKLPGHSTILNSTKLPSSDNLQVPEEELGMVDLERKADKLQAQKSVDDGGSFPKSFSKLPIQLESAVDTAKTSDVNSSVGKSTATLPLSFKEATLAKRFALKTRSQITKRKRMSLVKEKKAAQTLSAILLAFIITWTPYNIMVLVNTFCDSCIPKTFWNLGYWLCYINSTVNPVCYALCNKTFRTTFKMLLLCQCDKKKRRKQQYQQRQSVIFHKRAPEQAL
In short: as §1

human M4 receptor = human M4 receptor (Homo sapiens (Human), UniProt P08173); assay: Radioligand (tritiated N-methylscopolamine) binding assay, M4; conditions: Ki against the M4 receptor; membranes from CHO cells expressing human M4; tritiated N-methylscopolamine 1.5 nM; read-out: Ki
Chain of human M4 receptor (P08173 whole entry): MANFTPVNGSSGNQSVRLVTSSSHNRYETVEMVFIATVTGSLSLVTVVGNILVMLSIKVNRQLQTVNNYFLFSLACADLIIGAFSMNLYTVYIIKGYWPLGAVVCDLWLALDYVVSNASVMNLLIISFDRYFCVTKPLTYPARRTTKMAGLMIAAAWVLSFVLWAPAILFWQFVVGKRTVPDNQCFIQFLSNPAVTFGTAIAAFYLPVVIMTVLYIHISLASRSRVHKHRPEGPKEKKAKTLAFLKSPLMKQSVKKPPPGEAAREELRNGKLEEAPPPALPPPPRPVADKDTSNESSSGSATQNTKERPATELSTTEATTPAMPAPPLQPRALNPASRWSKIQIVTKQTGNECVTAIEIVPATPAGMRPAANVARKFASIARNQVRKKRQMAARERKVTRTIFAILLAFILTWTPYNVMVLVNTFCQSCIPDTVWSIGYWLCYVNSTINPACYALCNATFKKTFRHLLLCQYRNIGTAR
In short: as §1

human M1 receptor = human M1 receptor (Homo sapiens (Human), UniProt P11229); assay: Radioligand (tritiated N-methylscopolamine) binding assay, M1; conditions: CHO cell membranes expressing human M1; 1.5 nM tritiated N-methylscopolamine; 90 min, 37° C.; read-out: Ki against M1 receptor (Table 21, M1)
Chain of human M1 receptor (P11229 whole entry): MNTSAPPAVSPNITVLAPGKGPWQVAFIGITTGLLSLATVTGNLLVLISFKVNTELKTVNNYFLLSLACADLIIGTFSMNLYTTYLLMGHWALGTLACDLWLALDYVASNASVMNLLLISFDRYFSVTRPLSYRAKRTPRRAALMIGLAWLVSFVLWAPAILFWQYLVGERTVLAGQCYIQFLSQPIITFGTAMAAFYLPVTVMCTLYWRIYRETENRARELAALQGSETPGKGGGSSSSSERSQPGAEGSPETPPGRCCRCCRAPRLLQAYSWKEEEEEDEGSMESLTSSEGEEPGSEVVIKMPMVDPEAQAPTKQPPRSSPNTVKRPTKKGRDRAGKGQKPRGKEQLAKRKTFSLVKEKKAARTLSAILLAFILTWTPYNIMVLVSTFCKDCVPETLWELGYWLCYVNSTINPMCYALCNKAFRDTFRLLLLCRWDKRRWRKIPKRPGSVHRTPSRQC
In short: as §1

human M5 receptor = human M5 receptor (Homo sapiens (Human), UniProt P08912); assay: Radioligand (tritiated N-methylscopolamine) binding assay, M5; conditions: CHO cell membranes expressing human M5; 1.5 nM tritiated N-methylscopolamine; 90 min, 37° C.; read-out: Ki against M5 receptor (Table 21, M5)
Chain of human M5 receptor (P08912 whole entry): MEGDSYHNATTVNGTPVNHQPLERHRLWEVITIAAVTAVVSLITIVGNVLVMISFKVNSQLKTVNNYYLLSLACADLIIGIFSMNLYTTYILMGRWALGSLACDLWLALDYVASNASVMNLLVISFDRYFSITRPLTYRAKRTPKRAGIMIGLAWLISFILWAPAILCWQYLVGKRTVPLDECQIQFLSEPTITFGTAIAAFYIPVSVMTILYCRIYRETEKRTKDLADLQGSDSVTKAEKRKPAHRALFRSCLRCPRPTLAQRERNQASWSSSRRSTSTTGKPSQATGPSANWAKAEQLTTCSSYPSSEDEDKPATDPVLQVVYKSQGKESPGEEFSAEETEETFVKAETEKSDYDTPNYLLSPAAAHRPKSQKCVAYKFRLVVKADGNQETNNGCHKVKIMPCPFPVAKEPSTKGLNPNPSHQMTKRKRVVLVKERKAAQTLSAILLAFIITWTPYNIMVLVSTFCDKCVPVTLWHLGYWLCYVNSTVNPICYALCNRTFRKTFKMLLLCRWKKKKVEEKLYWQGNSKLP
In short: as §1

| Ki (human M2 receptor) [nM] | Ki (human M3 receptor) [nM] | Ki (human M4 receptor) [nM] | Ki (human M1 receptor) [nM] | Ki (human M5 receptor) [nM] | Structure (SMILES) |
| --- | --- | --- | --- | --- | --- |
| 100 to 1000 | > 1000 | < 10 | > 1000 | > 1000 | C[C@@H]1CN(c2ccc(OC(F)(F)F)c(C#N)c2)CCN1C(=O)NC[C@@H](O)C1CCN(Cc2ccccc2)CC1 [3-21, (2R)-N-[(2S)-2-(1-benzylpiperidin-4-yl)-2-hydroxyethyl]-4-[3-cyano-4-(trifluoromethoxy)phenyl]-2-methylpiperazine-1-carboxamide] |
| 100 to 1000 | > 1000 | < 10 | > 1000 | > 1000 | Cc1ccc(N2CCN(C(=O)NCCC3CCN(Cc4ccccc4)CC3)[C@H](C)C2)cc1F [4-13, (2R)-N-[2-(1-benzylpiperidin-4-yl)ethyl]-4-(3-fluoro-4-methylphenyl)-2-methylpiperazine-1-carboxamide] |
| 100 to 1000 | > 1000 | < 10 | 100 to 1000 | > 1000 | C[C@@H]1CN(c2ncc(C(F)(F)F)c(N)n2)C[C@H](C)N1C(=O)NCCC1CCN(Cc2ccccc2)CC1 [5-28, (2R,6S)-4-[4-amino-5-(trifluoromethyl)pyrimidin-2-yl]-N-[2-(1-benzylpiperidin-4-yl)ethyl]-2,6-dimethylpiperazine-1-carboxamide] |
| 100 to 1000 | > 1000 | < 10 | 100 to 1000 | > 1000 | C[C@@H]1CN(c2ncc(C(F)(F)F)cn2)C[C@H](C)N1C(=O)NCCC1CCN(Cc2ccccc2)CC1 [5-27, (2R,6S)-N-[2-(1-benzylpiperidin-4-yl)ethyl]-2,6-dimethyl-4-[5-(trifluoromethyl)pyrimidin-2-yl]piperazine-1-carboxamide] |
| 100 to 1000 | > 1000 | < 10 | > 1000 | > 1000 | C[C@@H]1CN(c2ncc(C#N)c(N)n2)CCN1C(=O)NCCC1CCN(Cc2ccccc2)CC1 [5-1, (2R)-4-(4-amino-5-cyanopyrimidin-2-yl)-N-[2-(1-benzylpiperidin-4-yl)ethyl]-2-methylpiperazine-1-carboxamide] |
| 100 to 1000 | > 1000 | < 10 | > 1000 | > 1000 | O=C(NCCC1CCN(Cc2ccccc2)CC1)C1CCN(c2ccc(OC(F)(F)F)c(F)c2)CC1 [10-8, N-[2-(1-benzylpiperidin-4-yl)ethyl]-1-[3-fluoro-4-(trifluoromethoxy)phenyl]piperidine-4-carboxamide] |
| 100 to 1000 | > 1000 | < 10 | > 1000 | > 1000 | N#Cc1cc(F)cc(N2CCC(C(=O)NCCC3CCN(Cc4ccccc4)CC3)CC2)c1 [10-14, N-[2-(1-benzylpiperidin-4-yl)ethyl]-1-(3-cyano-5-fluorophenyl)piperidine-4-carboxamide] |
| 100 to 1000 | > 1000 | < 10 | 100 to 1000 | > 1000 | C[C@@H]1CN(c2ncc(C(F)(F)F)cn2)CCN1C(=O)NCCC1CCN(Cc2cccc(F)c2)CC1 [6-36, (2R)-N-(2-{1-[(3-fluorophenyl)methyl]piperidin-4-yl}ethyl)-2-methyl-4-[5-(trifluoromethyl)pyrimidin-2-yl]piperazine-1-carboxamide] |
| 100 to 1000 | > 1000 | < 10 | > 1000 | > 1000 | C[C@@H]1CN(C(=O)NCCC2CCN(Cc3ccccc3)CC2)CCN1c1ccc(OC(F)(F)F)cc1 [4-18, (3R)-N-[2-(1-benzylpiperidin-4-yl)ethyl]-3-methyl-4-[4-(trifluoromethoxy)phenyl]piperazine-1-carboxamide] |
| 100 to 1000 | > 1000 | < 10 | > 1000 | > 1000 | C[C@@H]1CN(c2ccc(C#N)cc2F)C[C@H](C)N1C(=O)NCCC1CCN(Cc2ccccc2)CC1 [22-3] |
| 100 to 1000 | > 1000 | < 10 | > 1000 | > 1000 | O=C(NCCC1CCN(Cc2ccccc2)CC1)C1CCN(c2ccc(C(F)(F)F)cc2)CC1 [10-9, N-[2-(1-benzylpiperidin-4-yl)ethyl]-1-[4-(trifluoromethyl)phenyl]piperidine-4-carboxamide] |
| 100 to 1000 | > 1000 | < 10 | > 1000 | > 1000 | O=C(NCCC1CCN(Cc2ccccc2)CC1)C1CCN(c2ccc(F)c(F)c2)CC1 [10-21, N-[2-(1-benzylpiperidin-4-yl)ethyl]-1-(3,4-difluorophenyl)piperidine-4-carboxamide] |
| 10 to 100 | 100 to 1000 | < 10 | 100 to 1000 | > 1000 | C[C@@H]1CN(c2ncc(C(F)(F)F)cn2)CCN1C(=O)NCCC1CCN(Cc2cccc(C#N)c2)CC1 [6-40, (2R)-N-(2-{1-[(3-cyanophenyl)methyl]piperidin-4-yl}ethyl)-2-methyl-4-[5-(trifluoromethyl)pyrimidin-2-yl]piperazine-1-carboxamide] |
| 10 to 100 | > 1000 | < 10 | 100 to 1000 | > 1000 | C[C@@H]1CN(c2ncc(C(F)(F)F)c(N)n2)C[C@@H](C)N1C(=O)NCCC1CCN(Cc2ccccc2)CC1 [26-1, (2R,6R)-4-[4-amino-5-(trifluoromethyl)pyrimidin-2-yl]-N-[2-(1-benzylpiperidin-4-yl)ethyl]-2,6-dimethylpiperazine-1-carboxamide] |
| 10 to 100 | > 1000 | < 10 | > 1000 | 100 to 1000 | C[C@@H]1CN(c2cc(F)c(C#N)c(F)c2)CCN1C(=O)NCCC1CCN(Cc2ccccc2)CC1 [22-12] |
| 10 to 100 | > 1000 | < 10 | 100 to 1000 | > 1000 | COc1ccc(N2C[C@@H](C)N(C(=O)NCCC3CCN(Cc4ccccc4)CC3)[C@@H](C)C2)cc1C#N [22-24] |
| > 1000 | > 1000 | < 10 | > 1000 | > 1000 | C[C@@H]1CN(c2ccc(F)c(C#N)c2)CCN1C(=O)NC[C@H](O)C1CCN(Cc2ccccc2)CC1 [7-12, (2R)-N-[(2R)-2-(1-benzylpiperidin-4-yl)-2-hydroxyethyl]-4-(3-cyano-4-fluorophenyl)-2-methylpiperazine-1-carboxamide] |
| 10 to 100 | > 1000 | < 10 | 100 to 1000 | 100 to 1000 | C[C@@H]1CN(c2ncc(F)cc2F)C[C@H](C)N1C(=O)NCCC1CCN(Cc2ccccc2)CC1 [22-5, (2R,6S)-N-[2-(1-benzylpiperidin-4-yl)ethyl]-4-(3,5-difluoropyridin-2-y1)-2,6-dimethylpiperazine-1-carboxamide] |
| 10 to 100 | > 1000 | < 10 | 100 to 1000 | > 1000 | C[C@@H]1CN(c2cc(F)c(C#N)c(F)c2)C[C@H](C)N1C(=O)NCCC1CCN(Cc2ccccc2)CC1 [22-9] |
| 100 to 1000 | > 1000 | < 10 | 100 to 1000 | > 1000 | C[C@@H]1CN(c2ccc(OC(F)(F)F)cn2)CCN1C(=O)NCCC1CCN(Cc2ccccc2)CC1 [3-13, (2R)-N-[2-(1-benzylpiperidin-4-yl)ethyl]-2-methyl-4-[5-(trifluoromethoxy)pyridin-2-yl]piperazine-1-carboxamide] |
| 100 to 1000 | > 1000 | < 10 | 100 to 1000 | > 1000 | C[C@@H]1CN(c2cccc(C#N)c2)CCN1C(=O)NCCC1CCN(Cc2ccccc2)CC1 [4-68, (2R)-N-[2-(1-benzylpiperidin-4-yl)ethyl]-4-(3-cyanophenyl)-2-methylpiperazine-1-carboxamide] |
| 10 to 100 | > 1000 | < 10 | 100 to 1000 | > 1000 | CNc1nc(N2CCN(C(=O)NCCC3CCN(Cc4ccccc4)CC3)[C@H](C)C2)ncc1C#N [5-23, (2R)-N-[2-(1-benzylpiperidin-4-yl)ethyl]-4-[5-cyano-4-(methylamino)pyrimidin-2-yl]-2-methylpiperazine-1-carboxamide] |
| 100 to 1000 | > 1000 | < 10 | > 1000 | > 1000 | O=C(NCCC1CCN(Cc2ccccc2)CC1)C1CCN(c2ccc(OC(F)(F)F)cc2)CC1 [9-1, N-[2-(1-benzylpiperidin-4-yl)ethyl]-1-[4-(trifluoromethoxy)phenyl]piperidine-4-carboxamide] |
| 10 to 100 | 100 to 1000 | < 10 | 100 to 1000 | > 1000 | C[C@@H]1CN(c2cnc(C(F)(F)F)nc2)C[C@H](C)N1C(=O)NCCC1CCN(Cc2ccc3[nH]ccc3c2)CC1 [6-50, (2R,6S)-N-{2-[1-(1H-indol-5-ylmethyl)piperidin-4-yl]ethyl}-2,6-dimethyl-4-[2-(trifluoromethyl)pyrimidin-5-yl]piperazine-1-carboxamide] |
| 100 to 1000 | > 1000 | < 10 | 100 to 1000 | > 1000 | O=C(NCCC1CCN(Cc2ccccc2)CC1)C1CCN(c2ccc(F)c(OC(F)(F)F)c2)CC1 [10-11, N-[2-(1-benzylpiperidin-4-yl)ethyl]-1-[4-fluoro-3-(trifluoromethoxy)phenyl]piperidine-4-carboxamide] |
